According to patent US7728042B2, “Transdermal pharmaceutical composition” (Richter Gedeon Vegyeszeti Gyar RT, priority 2003, dated 2010):

Columns and labels:
[1] = Active agent release, Microette Hanson vertical diffusion cell, hydrophilic membrane soaked with water; details: for Release kinetics of the active agent: liquid crystal transdermal gel, Q=Q0+nt^0.5
[2] = Active agent release, Microette Hanson vertical diffusion cell, lipophilic membrane soaked with isopropyl myristate; details: release from liquid crystal gel, FIGS. 7-14
[3] = oral administration; cited from earlier work

Question: What does the source list for `CNC1(c2ccccc2Cl)CCCCC1=O` (stereo not shown) [Ketamine, 2-(2-chloro-phenyl)-2-(methyl-amino)-cyclohexanon]?
Answer: Active agent release in 4 hours, Hydrophilic membrane ([1]; liquid crystal gel with low molecular weight sodium-hyaluronate, ondansetron 1.2%, terbinafine 2.0%, metronidazole 0.9%, eperisone 0.8%, tolperisone 1.0%, ketamine 1.0%): 9.73 μg/cm^2; Release kinetics of the active agent [1]: generally follows the Higuchi-like relationship; Crossing of the hydrophilic membrane ([1]; release from liquid crystal gel, FIGS. 7-14): cross the hydrophilic membrane quickly and effectively; Crossing of the membrane impregnated with lipophilic fluid [2]: do not cross the membrane impregnated with lipophilic fluid

Question: With `Cc1ccc(C(=O)C(C)CN2CCCCC2)cc1` (stereo not shown) [Tolperisone, 1-piperidino-2-methyl-3-(p-tolyl)-3-propanon] as the compound, how does the “Release kinetics of the active agent” value [1] read?
Answer: The value was “generally follows the Higuchi-like relationship”.

Question: Which “Release kinetics of the active agent” value [1] does the source give for `CCc1ccc(C(=O)C(C)CN2CCCCC2)cc1` (stereo not shown) [Eperisone, 1-(4-ethyl-phenyl)-2-methyl-3-(1-piperidinyl)-1-propanon] here?
Answer: The value was “generally follows the Higuchi-like relationship”.

Question: For `Cc1nccn1CC1CCc2c(c3ccccc3n2C)C1=O` (stereo not shown) [Ondansetron, 1,2,3,9-tetrahydro-9-methyl-3-[(2-methyl-1H-imidazol-1-il)-methyl]-4H-karbazol-4-on], which “Release kinetics of the active agent” value [1] is on record?
Answer: Its value is “generally follows the Higuchi-like relationship”.

Question: With `CN(C/C=C/C#CC(C)(C)C)Cc1cccc2ccccc12` [Terbinafine, N-(6,6-dimethyl-2-heptene-4-inyl)-N-methyl-(E)-naphtal-1-en-methan-amine] as the compound, how does the “Release kinetics of the active agent” value [1] read?
Answer: The value was “generally follows the Higuchi-like relationship”.

Question: For `CCOC(=O)C1=C[C@]2(CC)CCCN3CCc4c(n1c1ccccc41)[C@@H]32` [vinpocetine, (3α,16α)-eburnamenine-14-carboxylic acid ethylester], which Bioavailability [3] is on record?
Answer: Its Bioavailability is 6-8%.

Question: For `Cc1ncc([N+](=O)[O-])n1CCO` [Metronidazole, 1-(2-hydroxy-1-ethyl)-2-methyl-5-nitro-imidazol], which “Release kinetics of the active agent” value [1] is on record?
Answer: Its value is “generally follows the Higuchi-like relationship”.
